Legend:
[1] = tested on: rice; assay: Test B pre-/postemergence herbicide test; assay type: in vivo, Oryza sativa; conditions: preemergence, 125 g ai/ha; 0 to 100 scale, 0 is no effect, 100 is complete control
How it was run: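 Test chemicals in a non-phytotoxic solvent mixture with surfactant were applied preemergence to seeded species and postemergence to plants 2-18 cm tall (1- to 4-leaf stage); rice and barnyardgrass were also tested in a flooded paddy at the 2-leaf stage. Visual rating versus controls after 13-15 days in greenhouse, scale 0 (no effect) to 100 (complete control).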

[2] = tested on: yellow nutsedge; assay: Test C pre-/postemergence herbicide test; assay type: in vivo, Cyperus esculentus; conditions: for Plant response rating (0 = no effect, 100 = complete control), Nutsedge, Yellow: 62 g ai/ha; for Plant response rating (0 = no effect, 100 = complete control), Nutsedge, Yellow / Plant response rating, Nutsedge, Yellow: preemergence; for Plant response rating, Nutsedge, Yellow: 125 g ai/ha, scale 0 (no effect) to 100 (complete control), visual, 12 to 14 days; for Nutsedge, Yellow plant response rating: Preemergence, 500 g ai/ha, scale 0 to 100, 0 no effect, 100 complete control
How it was run: (§1)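 Greenhouse-grown plants were evaluated visually 12 to 14 days after treatment, with 100 meaning complete control and 0 no effect. Application was preemergence, or postemergence at 2 to 18 cm.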

[3] = tested on: common ragweed; assay: Test C pre-/postemergence herbicide test; assay type: in vivo, Ambrosia elatior; design: key to Plant response rating, Ragweed: 0 = no effect, 100 = complete control; conditions: for Plant response rating (0 = no effect, 100 = complete control), Ragweed: 62 g ai/ha; for Plant response rating (0 = no effect, 100 = complete control), Ragweed / Plant response rating, Ragweed: preemergence; for Plant response rating, Ragweed: 125 g ai/ha, scale 0 (no effect) to 100 (complete control), visual, 12 to 14 days; for Ragweed plant response rating: Preemergence, 500 g ai/ha, scale 0 to 100, 0 no effect, 100 complete control
How it was run: as §1

[4] = tested on: cocklebur; assay: Test C pre-/postemergence herbicide test; assay type: in vivo, Xanthium strumarium; conditions: for Plant response rating (0 = no effect, 100 = complete control), Cocklebur: 62 g ai/ha; for Plant response rating (0 = no effect, 100 = complete control), Cocklebur / Plant response rating, Cocklebur: preemergence; for Plant response rating, Cocklebur: visual, 12 to 14 days; for Cocklebur plant response rating: Preemergence, 500 g ai/ha, scale 0 to 100, 0 no effect, 100 complete control
How it was run: as §1

[5] = tested on: common (oilseed) sunflower; assay: Test C pre-/postemergence herbicide test; assay type: in vivo, Helianthus annuus; conditions: for Plant response rating (0 = no effect, 100 = complete control), Sunflower: 62 g ai/ha; for Plant response rating (0 = no effect, 100 = complete control), Sunflower / Plant response rating, Sunflower: preemergence; for Plant response rating, Sunflower: 125 g ai/ha, scale 0 (no effect) to 100 (complete control), visual, 12 to 14 days; for Sunflower plant response rating: Preemergence, 500 g ai/ha, scale 0 to 100, 0 no effect, 100 complete control
How it was run: as §1

[6] = tested on: velvetleaf; assay: Test A pre-/postemergence herbicide test; assay type: in vivo, Abutilon theophrasti
How it was run: (§2)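 Plants are held in greenhouse about ten days after treatment, then compared with untreated controls and scored 0 (no effect) to 100 (complete control). Preemergence dosing is a directed soil spray on sown sandy loam; postemergence dosing is spray to runoff at 2–10 cm height.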

[7] = tested on: lambsquarters; assay: Test C pre-/postemergence herbicide test; assay type: in vivo, Chenopodium album; conditions: for Plant response rating (0 = no effect, 100 = complete control), Lambsquarters: 62 g ai/ha; for Plant response rating (0 = no effect, 100 = complete control), Lambsquarters / Plant response rating, Lambsquarters: preemergence; for Plant response rating, Lambsquarters: 125 g ai/ha, scale 0 (no effect) to 100 (complete control), visual, 12 to 14 days; for Lambsquarters plant response rating: Preemergence, 500 g ai/ha, scale 0 to 100, 0 no effect, 100 complete control
How it was run: as §1

[8] = tested on: morningglory; assay: Test A pre-/postemergence herbicide test; assay type: in vivo, Ipomoea spp.
How it was run: as §2

[9] = tested on: rice; assay: Test C flooded paddy test; assay type: in vivo, Oryza sativa; conditions: for Plant response rating, Rice: 500 g ai/ha, visual rating after 12 to 14 days
How it was run: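 Plants were grown to the 1- to 4-leaf stage (2–18 cm) and then treated postemergence, or grown to the 2-leaf stage for the flooded paddy test. They were held in a greenhouse for 12 to 14 days and then scored by eye against controls, where 0 is no effect and 100 is complete control.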

[10] = tested on: soybean; assay: Test C pre-/postemergence herbicide test; assay type: in vivo, Glycine max; conditions: for Plant response rating (0 = no effect, 100 = complete control), Soybean: 62 g ai/ha; for Plant response rating (0 = no effect, 100 = complete control), Soybean / Plant response rating, Soybean: preemergence; for Plant response rating, Soybean: 125 g ai/ha, scale 0 (no effect) to 100 (complete control), visual, 12 to 14 days; for Soybean plant response rating: Preemergence, 500 g ai/ha, scale 0 to 100, 0 no effect, 100 complete control
How it was run: as §1

[11] = 125 g ai/ha, scale 0 (no effect) to 100 (complete control)
[12] = 250 g ai/ha, scale 0 to 100 (0 no effect, 100 complete control)
[13] = Postemergence, 500 g ai/ha, 0 to 100 scale, 0 no effect, 100 complete control
[14] = Postemergence, 2000 g ai/ha, 0 to 100 scale, 0 no effect, 100 complete control
[15] = Preemergence, 500 g ai/ha, visual rating, 0 to 100 scale (0 no effect, 100 complete control)
[16] = Preemergence, 2000 g ai/ha, visual rating, 0 to 100 scale (0 no effect, 100 complete control)
[17] = Preemergence, 2000 g ai/ha, 0 to 100 scale, 0 no effect, 100 complete control
[18] = 62 g ai/ha, scale 0 to 100 (0 no effect, 100 complete control)
[19] = 125 g ai/ha, scale of 0 to 100, 0 is no effect, 100 is complete control
[20] = 250 g ai/ha, scale of 0 to 100, 0 is no effect, 100 is complete control
[21] = scale 0 to 100 (0 no effect, 100 complete control)

Compound | Plant response rating, Rice [1] | Plant response rating (0 = no effect, 100 = complete control), Nutsedge, Yellow [2] | Plant response rating, Nutsedge, Yellow [2] | Nutsedge, Yellow plant response rating [2] | Plant response rating (0 = no effect, 100 = complete control), Ragweed [3] | Plant response rating, Ragweed [3] | Ragweed plant response rating [3] | Plant response rating (0 = no effect, 100 = complete control), Cocklebur [4] | Plant response rating, Cocklebur [4, 11] | Plant response rating, Cocklebur [4, 12] | Cocklebur plant response rating [4] | Plant response rating (0 = no effect, 100 = complete control), Sunflower [5] | Plant response rating, Sunflower [5] | Sunflower plant response rating [5] | Plant response rating, Velvetleaf [6, 14] | Velvetleaf plant response rating [6, 15] | Velvetleaf plant response rating [6, 16] | Plant response rating (0 = no effect, 100 = complete control), Lambsquarters [7] | Plant response rating, Lambsquarters [7] | Lambsquarters plant response rating [7] | other results
CCOC(=O)c1cccc(NC(=O)c2cc(C(C)(C)C)nn2CC)c1C [Compound 88] | 20 | 0 | 0 | 0 | 0 | 0 | 20 | 0 | 0 | 0 | 0 | 0 | 0 | 0 | 55 | 45 | 70 | 95 | 95 | 100 | Velvetleaf plant response rating [6, 13]: 40; Morningglory plant response rating [8, 13]: 35; Plant response rating, Morningglory [8, 14]: 40; Morningglory plant response rating [8, 15]: 10; Morningglory plant response rating [8, 17]: 40; Rice plant response rating [9, 18]: 0; Rice plant response rating [9, 19]: 0; Rice plant response rating [9, 20]: 20; Plant response rating, Rice [9, 21]: 45; Plant response rating (0 = no effect, 100 = complete control), Soybean [10]: 0; Plant response rating, Soybean [10]: 0; Soybean plant response rating [10]: 10
CCCN1CCc2c(NC(=O)c3cc(C(C)(C)C)nn3CC)cccc2C1=O [Compound 65] | 10 | 0 | 0 | 0 | 0 | 0 | 60 | 0 | 0 | 0 | 0 | 0 | 0 | 0 | 25 | 10 | 30 | 20 | 95 | 100 | Plant response rating, Morningglory [8, 13]: 10; Plant response rating, Morningglory [8, 14]: 10; Morningglory plant response rating [8, 15]: 5; Morningglory plant response rating [8, 17]: 5; Rice plant response rating [9, 18]: 0; Rice plant response rating [9, 19]: 0; Rice plant response rating [9, 20]: 25; Plant response rating, Rice [9, 21]: 30; Plant response rating (0 = no effect, 100 = complete control), Soybean [10]: 0; Plant response rating, Soybean [10]: 0; Soybean plant response rating [10]: 20

From patent publication US20060069132A1, “Azolecarboxamide herbicides” (priority 2004, published 2006)
